Test results published in US12240840B2, “Amide-substituted heterocyclic compounds for the treatment of conditions related to the modulation of IL-12, IL-23 and/or IFN-alpha” (BRISTOL-MYERS SQUIBB COMPANY, priority 2018, dated 2025).

Each compound was assayed on IFNα-induced pSTAT5 (pY694) in CD3 positive cells of human whole blood (assay: IFNα-Induced STAT Phosphorylation in Human Whole Blood). Conditions: Homo sapiens, 1 h compound incubation, 1000 U/mL recombinant human IFNα A/D for 15 min, pSTAT5 in CD3 positive population, read-out: Human WB IFNα-Induced Stat Phosph. (IC50).
Type: cell-based
Procedure, shortened: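 Read-out is median fluorescence intensity of pSTAT5 (pY694) in the CD3-positive gate, by flow cytometry after fix/lyse and permeabilization. Before that, whole human blood anticoagulated with EDTA or ACD-A received compound for an hour and 1000 U/mL IFNα A/D for 15 min.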

Row | Structure (SMILES) | IC50 [nM]
1 | [2H]C([2H])([2H])NC(=O)c1nnc(NC(=O)C2CC2)cc1Nc1cccc(-n2cc(CN3CCN(S(C)(=O)=O)CC3)nn2)c1OC [Example 4] | 660
2 | [2H]C([2H])([2H])NC(=O)c1nnc(NC(=O)C2CC2)cc1Nc1cccc(-c2noc(C(=O)N(C)C)n2)c1OC [Example 17] | 490
3 | [2H]C([2H])([2H])NC(=O)c1nnc(NC(=O)C2CC2)cc1Nc1cccc(-c2noc(CCC(=O)NCCC3CCCN3C)n2)c1OC (stereo not shown) [Example 26] | 3900
4 | [2H]C([2H])([2H])NC(=O)c1cnc(NC(=O)C2CC2)cc1Nc1cccc(-c2cnn(CCNC(=O)CC#N)n2)c1OC [Example 440] | 1160
5 | [2H]C([2H])([2H])NC(=O)c1nnc(NC(=O)C2CC2)cc1Nc1cccc(-c2nc(/C=C/c3ccccc3)no2)c1OC [Example 236] | > 10000
6 | [2H]C([2H])([2H])NC(=O)c1nnc(NC(=O)C2CC2)cc1Nc1cccc(-c2cnn(CC(=O)NCC(CC)CC)n2)c1OC [Example 428] | 2630
7 | [2H]C([2H])([2H])NC(=O)c1nnc(NC(=O)C2CC2)cc1Nc1cccc(-c2cc(C(=O)N(C)CCN(C)C)n(C)n2)c1OC [Example 526] | 520
8 | [2H]C([2H])([2H])NC(=O)c1nnc(NC(=O)C2CC2)cc1Nc1cccc(-c2nc(CC)no2)c1OC [Example 121] | > 10000
9 | [2H]C([2H])([2H])NC(=O)c1cnc(NC(=O)C2CC2)cc1Nc1cccc(-c2nc(C3(N)CC3)no2)c1OC [Example 212] | 320
10 | [2H]C([2H])([2H])NC(=O)c1nnc(NC(=O)C2CC2)cc1Nc1cc(F)cc(-c2cc(C(=O)N(C)C(C)C)n(C)n2)c1OC [Example 506] | 250
11 | [2H]C([2H])([2H])NC(=O)c1nnc(NC(=O)C2CC2)cc1Nc1cccc(-c2nc([C@@H](N)CO)no2)c1OC [Example 201] | 290
12 | [2H]C([2H])([2H])NC(=O)c1nnc(NC(=O)C2CC2)cc1Nc1cccc(-c2nc(CC=C)no2)c1OC [Example 229] | > 10000
13 | [2H]C([2H])([2H])NC(=O)c1cnc(Nc2cc(C(C)(C)O)ccn2)cc1Nc1cc(F)cc(-c2csc(C(=O)NCCOC)n2)c1OC [Example 573] | 2000
14 | [2H]C([2H])([2H])NC(=O)c1nnc(NC(=O)C2CC2)cc1Nc1cccc(-c2ncc(C(=O)NCCNC(=O)CC)s2)c1OC [Example 240] | 180
15 | [2H]C([2H])([2H])NC(=O)c1nnc(NC(=O)C2CC2)cc1Nc1cccc(-c2cc(C(=O)N3C[C@@H](C)O[C@@H](C)C3)n(C)n2)c1OC [Example 525] | 240
16 | [2H]C([2H])([2H])NC(=O)c1nnc(NC(=O)C2CC2)cc1Nc1cccc(-c2nc(CC(=O)NCCO)no2)c1OC [Example 177] | 1030
17 | [2H]C([2H])([2H])NC(=O)c1nnc(NC(=O)C2CC2)cc1Nc1cc(F)cc(-c2cc(C(=O)N3CCNC(=O)C3)n(C)n2)c1OC [Example 519] | 570
18 | [2H]C([2H])([2H])NC(=O)c1nnc(NC(=O)C2CC2)cc1Nc1cccc(-c2ncc(CC(=O)NCCC3CCCN3C)s2)c1OC (stereo not shown) [Example 254] | 5430
19 | [2H]C([2H])([2H])NC(=O)c1nnc(NC(=O)C2CC2)cc1Nc1cccc(-c2nc(C)c(C(=O)NC3CCC(N(C)C)CC3)s2)c1OC (stereo not shown) [Example 365] | 320
20 | COc1c(Nc2cc(N)nnc2C(N)=O)cccc1-c1noc(C(=O)NCCC2CCCN2C)n1 (stereo not shown) [Example 115] | 3490

Row | Structure (SMILES) | IC50 [nM]
21 | [2H]C([2H])([2H])NC(=O)c1nnc(NC(=O)C2CC2)cc1Nc1cccc(-c2cc(C(=O)NC(COC)COC)n(C)n2)c1OC [Example 540] | 460
22 | [2H]C([2H])([2H])NC(=O)c1cnc(NC(=O)CC2CC2)cc1Nc1cccc(-c2noc(COC)n2)c1OC [Example 86] | 300
23 | [2H]C([2H])([2H])NC(=O)c1nnc(NC(=O)C2CC2)cc1Nc1cccc(-c2nc(C)c(C(=O)NCCCN(C)C)s2)c1OC [Example 357] | 880
24 | [2H]C([2H])([2H])NC(=O)c1nnc(NC(=O)C2CC2)cc1Nc1cccc(-c2ccn(CCNC[C@H](O)CC)n2)c1OC [Example 474] | 3560
25 | [2H]C([2H])([2H])NC(=O)c1cnc(NC(=O)C2CC2)cc1Nc1cccc(-c2csc(C(=O)NCCOC)n2)c1OC [Example 569] | 590
26 | [2H]C([2H])([2H])NC(=O)c1nnc(NC(=O)C2CC2)cc1Nc1cccc(-c2noc(C(=O)N3CCOCC3)n2)c1OC [Example 16] | 560
27 | [2H]C([2H])([2H])NC(=O)c1nnc(NC(=O)C2CC2)cc1Nc1cccc(-c2noc(C3(C(=O)N4CCOCC4)CC3)n2)c1OC [Example 28] | 210
28 | [2H]C([2H])([2H])NC(=O)c1nnc(NC(=O)C2CC2)cc1Nc1cccc(-c2cc(C)nn2CCN)c1OC [Example 463] | 800
29 | [2H]C([2H])([2H])NC(=O)c1nnc(NC(=O)C2CC2)cc1Nc1cccc(-c2nc(CN3CCN(C(C)=O)CC3=O)no2)c1OC [Example 140] | 330
30 | [2H]C([2H])([2H])NC(=O)c1nnc(NC(=O)C2CC2)cc1Nc1cc(F)cc(-c2cc(NC(C)=O)n(C)n2)c1OC [Example 500] | 370
31 | [2H]C([2H])([2H])NC(=O)c1nnc(NC(=O)C2CC2)cc1Nc1cccc(-c2nc(CN3CC4CN(C(=O)OC(C)(C)C)CC4C3)no2)c1OC (stereo not shown) [Example 231] | 1750
32 | [2H]C([2H])([2H])NC(=O)c1nnc(NC(=O)C2CC2)cc1Nc1cccc(-c2cnn(CCNC(=O)COC)c2)c1OC [Example 562] | 650
33 | [2H]C([2H])([2H])NC(=O)c1nnc(NC(=O)C2CC2)cc1Nc1cc(F)cc(-c2cc(C(=O)N(C)CC)n(C)n2)c1OC [Example 505] | 180
34 | [2H]C([2H])([2H])NC(=O)c1nnc(NC(=O)C2CC2)cc1Nc1cccc(-c2ccn(CCNC(=O)OC(C)(C)C)n2)c1OC [Example 464] | 1110
35 | [2H]C([2H])([2H])NC(=O)c1nnc(NC(=O)C2CC2)cc1Nc1cccc(-c2nc(C)c(C(=O)N3CCC(N4CCCC4)CC3)s2)c1OC [Example 361] | 190
36 | [2H]C([2H])([2H])NC(=O)c1nnc(NC(=O)C2CC2)cc1Nc1cccc(-c2ncc(C(=O)N3CCC(CCCO)CC3)s2)c1OC [Example 353] | 170
37 | [2H]C([2H])([2H])NC(=O)c1nnc(NC(=O)C2CC2)cc1Nc1cccc(-c2ncc(C(=O)N3CC(CO)C3)s2)c1OC [Example 345] | 180
38 | [2H]C([2H])([2H])NC(=O)c1nnc(Nc2ccc(C)nn2)cc1Nc1cccc(-c2cn(CCN3CCOCC3)nn2)c1OC [Example 424] | 200
39 | [2H]C([2H])([2H])NC(=O)c1nnc(NC(=O)C2CC2)cc1Nc1cccc(-c2cnn(CCNC(=O)OC(C)(C)C)n2)c1OC [Example 431] | > 10000
40 | [2H]C([2H])([2H])NC(=O)c1cnc(NC(=O)C2CC2)cc1Nc1cccc(-c2cnn(CCNC(=O)COC)n2)c1OC [Example 441] | 290

These reach a lower IC50. Values come first.

Row | IC50 [nM] | Structure (SMILES)
41 | 60 | [2H]C([2H])([2H])NC(=O)c1nnc(Nc2ccc(OC)nn2)cc1Nc1cccc(-c2cnn(C)n2)c1OC [Example 451, 4-((2-methoxy-3-(2-methyl-2H-1,2,3-triazol-4-yl)phenyl)amino)-6-((6-methoxypyridazin-3-yl)amino)-N-(methyl-d3)pyridazine-3-carboxamide]
42 | 80 | [2H]C([2H])([2H])NC(=O)c1nnc(NC(=O)C2CC2)cc1Nc1cccc(-c2ncc(C(=O)N3CCC(N4CCN(CCO)CC4)CC3)s2)c1OC [Example 342]
43 | 50 | [2H]C([2H])([2H])NC(=O)c1nnc(NC(=O)C2CC2)cc1Nc1cccc(-c2ncc(C(=O)NCC3CCCCN3C)s2)c1OC (stereo not shown) [Example 329]
44 | 30 | COc1c(Nc2cc(NC(=O)C3CC3)nnc2C(N)=O)cccc1-c1noc(CN(C)C)n1 [Example 63]
45 | 40 | [2H]C([2H])([2H])NC(=O)c1nnc(NC(=O)C2CC2)cc1Nc1cccc(-c2ncc(C(=O)NCC(O)CN3CCCC3=O)s2)c1OC (stereo not shown) [Example 332]
46 | 16 | [2H]C([2H])([2H])NC(=O)c1nnc(NC(=O)C2CC2)cc1Nc1cccc(-c2noc(CN(C)S(C)(=O)=O)n2)c1OC [Example 65]
47 | 80 | COc1c(Nc2cc(NC(=O)C3CC3)nnc2C(N)=O)cccc1-c1noc([C@H]2C[C@@H](O)CN2S(C)(=O)=O)n1 [Example 62]
48 | 50 | [2H]C([2H])([2H])NC(=O)c1cnc(NC(=O)C2CC2)cc1Nc1cccc(-c2noc(COCC)n2)c1OC [Example 91]
49 | 14 | COc1c(Nc2cc(NC(=O)C3CC3)nnc2C(N)=O)cccc1-c1noc(CO)n1 [Example 70]
50 | 50 | [2H]C([2H])([2H])NC(=O)c1nnc(NC(=O)C2CC2)cc1Nc1cccc(-c2ncc(C(=O)N3CC(C)(C)C3)s2)c1OC [Example 320]
51 | 140 | COc1c(Nc2cc(NC(=O)C3CC3)nnc2C(N)=O)cccc1-c1noc([C@H](C)NS(C)(=O)=O)n1 [Example 46]
52 | 60 | [2H]C([2H])([2H])NC(=O)c1nnc(NC(=O)C2CC2)cc1Nc1cccc(-c2ncc(C(=O)N3CCN(C(C)C)CC3)s2)c1OC [Example 295]
53 | 30 | [2H]C([2H])([2H])NC(=O)c1nnc(Nc2ccc(C)nn2)cc1Nc1cccc(-c2ncc(C(=O)N3CCS(=O)(=O)CC3)s2)c1OC [Example 383]
54 | 70 | COc1c(Nc2cc(NC(=O)C3CC3)nnc2C(N)=O)cccc1-c1noc(CNS(=O)(=O)C(C)C)n1 [Example 50]
55 | 160 | [2H]C([2H])([2H])NC(=O)c1nnc(NC(=O)C2CC2)cc1Nc1cccc(-c2noc(CN3CCCC3=O)n2)c1OC [Example 79]
56 | 70 | [2H]C([2H])([2H])NC(=O)c1nnc(NC(=O)C2CC2)cc1Nc1cccc(-c2noc(CN3CCC(O)C3)n2)c1OC (stereo not shown) [Example 82]
57 | 30 | COc1c(Nc2cc(NC(=O)C3CC3)nnc2C(N)=O)cccc1-c1noc(CC(=O)N2CCOCC2)n1 [Example 36]
58 | 70 | [2H]C([2H])([2H])NC(=O)c1nnc(NC(=O)C2CC2)cc1Nc1cccc(-c2ncc(C(=O)NCC(C)N3CCCCC3)s2)c1OC (stereo not shown) [Example 349]
